The values below come from US8293215B2, “Flavour modulating derivative of a carboxylic acid and a purine, pyrimidine, nucleoside, or nucleotide” (Givaudan Nederland Services B.V., priority 2006, dated 2012).

The conditions of data set [1]: cited from earlier work; for taste: as a dry powder and as an alcoholic or aqueous solution; for pungency: compared with capsaicin.
In data set [2] the test system is professional sensory panel. Description: aqueous solutions in 0.5% salt and 0.05% MSG tasted by a professional sensory panel. It is filed as in vivo. On the procedure:
Six aqueous solutions were prepared: A. 0.5% salt and 0.05% MSG The solutions were tasted by a professional sensory panel. Three aqueous solutions were prepared: A. 0.5% salt and 0.05% MSG The solutions were tasted by a professional sensory panel. Solution A was described as: “salty”. […] Three aqueous solutions were prepared: A. 0.5% salt and 0.05% MSG The solutions were tasted by a professional sensory panel. Solution A was described as: “salty” and “umami”.

In data set [3] the test system is sensory panel. Description: tomato soups (10 g powder in 100 ml hot water) tasted and evaluated by a sensory panel. Format: in vivo. As to conditions: for perceived saltiness versus product A (control) / taste description: 50% reduced salt. On the procedure: [table] 10 Gram of each composition was mixed with 100 ml hot water to obtain tomato soups. The different soups were tasted and evaluated by a sensory panel.

Data set [4] relates to sensory panel. Kind of data set: sweetened 0% fat red fruit yoghurts tasted and evaluated by a sensory panel. It is filed as in vivo. On the procedure:
Three yoghurts were prepared according to the recipe in table 2. [table] All products were tasted and evaluated by a sensory panel.

Where [5] appears, read: 0.1 ppt in 0.5% salt and 0.05% MSG (Example 4, solution C).
The mark [6] stands for this setting: 1 ppb in 0.5% salt and 0.05% MSG (Example 3, solution E).
Setting [7] is: 10 ppt in 0.5% salt and 0.05% MSG (Example 4, solution D).
Where [8] appears, read: 30 ppb in 0.5% salt and 0.05% MSG (Example 3, solution F).
Setting [9] is: product C: 0.005 mg per 100 g tomato soup powder.
[10] abbreviates: Yoghurt B: 0.003 microgram per 100 g yoghurt.
Where [11] appears, read: product D: 0.3 mg per 100 g tomato soup powder.
[12] abbreviates: Yoghurt C: 0.15 microgram per 100 g yoghurt.

Regarding phenylvanillylthiourea, in data set [1], the taste entry was “tasteless” and the pungency entry is given as “property of pungency but to a lesser degree than capsaicin”.
On to `COc1cc(CNC(N)=S)ccc1O` [vanillylthiourea], for which the taste result in data set [1] is given as “tasteless”.
For `CC(=O)Nc1nc2c(ncn2[C@@H]2O[C@H](COP(=O)(O)O)[C@@H](O)[C@H]2O)c(=O)[nH]1` [acetyl-GMP, N-acetyl-GMP], in data set [2] (setting [5]), the “share of the panel that found this detectable” value was 40% and the taste description result is ““sweet”, “umami””. Besides, in data set [2] (setting [6]), the taste description result was ““salivating”, “salty”” and the “taste strength compared with solution D (0.6 ppb lactoyl-GMP)” value is recorded as “stronger than D”. Besides, the taste description result in data set [2] (1 ppt in 0.5% salt and 0.05% MSG (Example 8, solution C)) is given as ““sweet”, “umami””. For the same compound, in data set [2] (setting [7]), the “share of the panel that found this detectable” value worked out at 100%; the “strength of the taste compared with solution B (0.6 ppb lactoyl-GMP)” value is reported as “comparable”; the taste description entry is on record as ““sweet”, “umami””. In data set [2] (setting [8]), the taste description result was ““salivating”, “salty”” and the “taste strength compared with solution E (1 ppb acetyl-GMP)” value is given as “stronger than E”. In the data set on sensory panel [3] (setting [9]), the “preference versus product B (50% reduced salt)” value was “clearly preferred over product B”; the “perceived saltiness versus product A (control)” value is on record as “comparable to that of product A”; the taste description entry is ““more taste”, “more impact”, “more kokumi”, “long lasting” and “salivating””. In addition, in the data set with sensory panel [4] (setting [10]), the “preference versus product A (yoghurt without modulator)” value is given as “clearly preferred over product A”; the “strength compared with product C (0.15 microgram lactoyl-GMP per 100 g)” value was “comparable”; the taste description result is “sweet, fuller, more natural berry-like, fruity and more balanced flavour”.
On to o-tolylvanillylthiourea, for which the pungency result in data set [1] was “property of pungency but to a lesser degree than capsaicin”.
For the compound `CC(O)C(=O)Nc1nc2c(ncn2[C@@H]2O[C@H](COP(=O)(O)O)[C@@H](O)[C@H]2O)c(=O)[nH]1` (stereo partly drawn) [lactoyl-GMP, reference compound], in data set [2] (0.6 ppb in 0.5% salt and 0.05% MSG), the taste description entry was ““sweet”, “lingering umami”, “more salivating””. Moreover, the “taste strength compared with solution C (0.2 ppm process flavour containing 0.3% lactoyl-GMP)” value in data set [2] (0.6 ppb in 0.5% salt and 0.05% MSG (Example 3, solution D)) is recorded as “stronger than C”. Moreover, in the data set on sensory panel [3] (setting [11]), the “preference versus product B (50% reduced salt)” value is “clearly preferred over product B”; the “perceived saltiness versus product A (control)” value is “comparable to that of product A”; the taste description result was ““more taste”, “more impact”, “more kokumi”, “long lasting” and “salivating””. Moreover, in the data set with sensory panel [4] (setting [12]), the “preference versus product A (yoghurt without modulator)” value is listed as “clearly preferred over product A”; the taste description result is “sweet, fuller, more natural berry-like, fruity and more balanced flavour”.
As to p-tolylvanillylthiourea, the pungency result in data set [1] is “property of pungency but to a lesser degree than capsaicin”.
On to `Nc1nc2c(ncn2[C@@H]2O[C@H](COP(=O)(O)O)[C@@H](O)[C@H]2O)c(=O)[nH]1` [GMP, guanosine 5′-monophosphate, reference compound], for which the taste description result in data set [2] (1 ppm in 0.5% salt and 0.05% MSG (Example 3, solution B)) is reported as ““sweet”, “lingering umami””.
Consider `COc1cc(CNC(N)=O)ccc1O` [Vanillylurea], for which the taste entry in data set [1] is “tasteless”.
